MIC data for four compounds are collected here from patent US7217726B2, “Antibacterial agents” (Orchid Chemicals & Pharmaceuticals Limited, priority 2002, dated 2007).

Values after ≈ are worked out from the molar mass of the structure shown.

In one assay the test system is S. aureus MRO 00003. Kind of assay: Agar Dilution Method MIC, S. aureus MRO 00003. Type of assay: cell-based. To be noted: Staphylococcus aureus, MRO00003, Mueller Hinton Agar, 35° Celsius, 20 hours, read-out: Minimum Inhibitory Concentration (MIC in μg/ml). The protocol: (§1) Briefly, the compounds of invention were weighed, dissolved in Dimethyl Sulfoxide, serially diluted in the same solvent and then incorporated into molten Mueller Hinton Agar in a petridish before solidification, with each petridish containing a different concentration of a compound.
(§2) The Bacterial Inoculum was prepared by touching the tops of 3 to 5 well isolated bacterial colonies with the same morphological appearance from an 18 hour old culture with an inoculating loop, transfering the growth to a tube containing 5 ml of normal saline and adjusting the turbidity of the saline suspension to 0.5 Macfarland Turbidity Standard equivalent to a bacterial population of 1.5×10^8 colony forming units (CFU) per millilitre of suspension.
(§3) The bacterial inoculum prepared in the above manner was inoculated onto petri dishes containing Mueller Hinton Agar which had earlier been incorporated with different dilutions of the compounds of invention by a Multipoint Inoculator with each inoculum spot containing approximately 1×10^4 colony forming units (CFU) of bacteria.
(§4) The inoculated petridishes were incubated at 35° Celsius in an ambient atmosphere for 20 hours. Petridishes containing different concentrations of Vancomycin and Oxacillin and inoculated with Staphylococcus aureus, Coagulase Negative Staphylococci and Enterococci were incubated for 24 hours.

In another assay the test system is S. epidermidis MRO 02046. Kind of assay: Agar Dilution Method MIC, S. epidermidis MRO 02046. The conditions noted are these: Staphylococcus epidermidis, MRO02046, Mueller Hinton Agar, 35° Celsius, 20 hours, read-out: Minimum Inhibitory Concentration (MIC in μg/ml). Type of assay: cell-based. The protocol: as §1, §2, §3, §4
On the technique in general: Agar dilution tests growth on a series of plates holding different concentrations.

A further assay relates to S. aureus MRO 00013. Kind of assay: Agar Dilution Method MIC, S. aureus MRO 00013. The conditions noted are these: Staphylococcus aureus, MRO00013, Mueller Hinton Agar, 35° Celsius, 20 hours, read-out: Minimum Inhibitory Concentration (MIC in μg/ml). Type of assay: cell-based. The procedure: as §1, §2, §3, §4
A further assay deals with E. faecalis ATCC 29212. The assay is described as follows: Agar Dilution Method MIC, E. faecalis ATCC 29212. In kind it is cell-based. The conditions noted are these: Enterococcus faecalis, ATCC29212, Mueller Hinton Agar, 35° Celsius, 20 hours, read-out: Minimum Inhibitory Concentration (MIC in μg/ml). The protocol:
as §1, §2, §3, §4

In a further assay the test system is S. aureus MRO 00030. Kind of assay: Agar Dilution Method MIC, S. aureus MRO 00030. In kind it is cell-based. The conditions noted are these: Staphylococcus aureus, MRO00030, Mueller Hinton Agar, 35° Celsius, 20 hours, read-out: Minimum Inhibitory Concentration (MIC in μg/ml). The protocol:
as §1, §2, §3, §4

Assay [1] has as its system M. catarrhalis ATCC 43628. The assay is described as follows: Agar Dilution Method MIC, M. catarrhalis ATCC 43628. In kind it is cell-based, Morexella catarrhalis. The conditions noted are these: Moraxella catarrhalis, ATCC43628, Mueller Hinton Agar, 35° Celsius, 20 hours, read-out: Minimum Inhibitory Concentration (MIC in μg/ml). The procedure:
as §1, §2, §3, §4

For a further assay, the system named is E. faecalis ATCC 51299. The assay is described as follows: Agar Dilution Method MIC, E. faecalis ATCC 51299. Type of assay: cell-based. The conditions noted are these: Enterococcus faecalis, ATCC51299, Mueller Hinton Agar, 35° Celsius, 20 hours, read-out: Minimum Inhibitory Concentration (MIC in μg/ml). The protocol: as §1, §2, §3, §4
A further assay concerns S. aureus MRO 00048. Kind of assay: Agar Dilution Method MIC, S. aureus MRO 00048. To be noted: Staphylococcus aureus, MRO00048, Mueller Hinton Agar, 35° Celsius, 20 hours, read-out: Minimum Inhibitory Concentration (MIC in μg/ml). In kind it is cell-based. The protocol:
as §1, §2, §3, §4

Another assay concerns S. aureus ATCC 29213. Kind of assay: Agar Dilution Method MIC, S. aureus ATCC 29213. Type of assay: cell-based. The conditions noted are these: Staphylococcus aureus, ATCC29213, Mueller Hinton Agar, 35° Celsius, 20 hours, read-out: Minimum Inhibitory Concentration (MIC in μg/ml). The protocol:
as §1, §2, §3, §4

The test system of another assay is S. aureus MRO 00055. The assay is described as follows: Agar Dilution Method MIC, S. aureus MRO 00055. In kind it is cell-based. The conditions noted are these: Staphylococcus aureus, MRO00055, Mueller Hinton Agar, 35° Celsius, 20 hours, read-out: Minimum Inhibitory Concentration (MIC in μg/ml). The procedure:
as §1, §2, §3, §4

Another assay concerns S. aureus ATCC 43300. Kind of assay: Agar Dilution Method MIC, S. aureus ATCC 43300. In kind it is cell-based. To be noted: Staphylococcus aureus, ATCC43300, Mueller Hinton Agar, 35° Celsius, 20 hours, read-out: Minimum Inhibitory Concentration (MIC in μg/ml). The procedure: as §1, §2, §3, §4
Assay [2] deals with M. catarrhalis ATCC 43627. Kind of assay: Agar Dilution Method MIC, M. catarrhalis ATCC 43627. Type of assay: cell-based, Morexella catarrhalis. The conditions noted are these: Moraxella catarrhalis, ATCC43627, Mueller Hinton Agar, 35° Celsius, 20 hours, read-out: Minimum Inhibitory Concentration (MIC in μg/ml). The protocol: as §1, §2, §3, §4
In another assay the test system is E. fecalis MRO 04045. Kind of assay: Agar Dilution Method MIC, E. fecalis MRO 04045. In kind it is cell-based. To be noted: Enterococcus faecalis, MRO04045, Mueller Hinton Agar, 35° Celsius, 20 hours, read-out: Minimum Inhibitory Concentration (MIC in μg/ml). The protocol: as §1, §2, §3, §4
Another assay has as its system S. aureus MRO 00059. The assay is described as follows: Agar Dilution Method MIC, S. aureus MRO 00059. Type of assay: cell-based. The conditions noted are these: Staphylococcus aureus, MRO00059, Mueller Hinton Agar, 35° Celsius, 20 hours, read-out: Minimum Inhibitory Concentration (MIC in μg/ml). The protocol:
as §1, §2, §3, §4

The test system of assay [3] is M. catarrhalis ATCC 43617. The assay is described as follows: Agar Dilution Method MIC, M. catarrhalis ATCC 43617. The conditions noted are these: Moraxella catarrhalis, ATCC43617, Mueller Hinton Agar, 35° Celsius, 20 hours, read-out: Minimum Inhibitory Concentration (MIC in μg/ml). In kind it is cell-based, Morexella catarrhalis. The procedure:
as §1, §2, §3, §4

The subject of a further assay is S. aureus MRO 00001. Kind of assay: Agar Dilution Method MIC, S. aureus MRO 00001. Type of assay: cell-based. To be noted: Staphylococcus aureus, MRO00001, Mueller Hinton Agar, 35° Celsius, 20 hours, read-out: Minimum Inhibitory Concentration (MIC in μg/ml). The procedure:
as §1, §2, §3, §4

For the compound `CC(=S)NC[C@H]1CN(c2ccc(N3CCN(C(=S)c4ccc(C)s4)CC3)c(F)c2)C(=O)O1` [Example 7, (S)-N-[3-[3-Fluoro-4-[4-(5-methylthiophen-2-ylthiocarbonyl)piperazin-1-yl]phenyl]-2-oxooxazolidin-5-ylmethyl]thioacetamide], the MIC was 0.5 µg/mL (≈ 1.01 µM) in the assay on S. aureus MRO 00003; 0.25 µg/mL (≈ 0.507 µM) with S. epidermidis MRO 02046; 1 µg/mL (≈ 2.03 µM) in the assay on S. aureus MRO 00013; 0.5 µg/mL (≈ 1.01 µM) in the assay on E. faecalis ATCC 29212; 0.5 µg/mL (≈ 1.01 µM) in the assay with S. aureus MRO 00030; 2 µg/mL (≈ 4.06 µM) in assay [1]. In addition, the MIC with E. faecalis ATCC 51299 worked out at 0.5 µg/mL (≈ 1.01 µM); in the assay on S. aureus MRO 00048 it was 0.5 µg/mL (≈ 1.01 µM); in the assay on S. aureus ATCC 29213, 0.5 µg/mL (≈ 1.01 µM); with S. aureus MRO 00055, 0.5 µg/mL (≈ 1.01 µM); in the assay on S. aureus ATCC 43300, 0.5 µg/mL (≈ 1.01 µM); in [2], 2 µg/mL (≈ 4.06 µM). Further, the MIC in the assay with E. fecalis MRO 04045 was 0.5 µg/mL (≈ 1.01 µM); in the assay with S. aureus MRO 00059, 0.5 µg/mL (≈ 1.01 µM); in [3] it was 2 µg/mL (≈ 4.06 µM); in the assay with S. aureus MRO 00001, 0.25 µg/mL (≈ 0.507 µM).
Consider `CC(=S)NC[C@H]1CN(c2ccc(N3CCN(C(=S)c4ccc(Cl)s4)CC3)c(F)c2)C(=O)O1` [Example 8, (S)-N-[3-[3-Fluoro-4-[4-(5-chlorothiophen-2-ylthiocarbonyl)piperazin-1-yl]phenyl]-2-oxooxazolidin-5-ylmethyl]thioacetamide], for which the MIC with S. aureus MRO 00003 came out at 0.5 µg/mL (≈ 0.974 µM); in the assay on S. epidermidis MRO 02046, 0.25 µg/mL (≈ 0.487 µM); with S. aureus MRO 00013, 0.5 µg/mL (≈ 0.974 µM); in the assay on E. faecalis ATCC 29212, 0.25 µg/mL (≈ 0.487 µM); in the assay on S. aureus MRO 00030, 0.5 µg/mL (≈ 0.974 µM); in [1], 2 µg/mL (≈ 3.9 µM). For the same compound, the MIC with E. faecalis ATCC 51299 came out at 0.25 µg/mL (≈ 0.487 µM); in the assay on S. aureus MRO 00048 it was 0.25 µg/mL (≈ 0.487 µM); in the assay on S. aureus ATCC 29213, 0.5 µg/mL (≈ 0.974 µM); in the assay on S. aureus MRO 00055, 0.5 µg/mL (≈ 0.974 µM); in the assay on S. aureus ATCC 43300 it was 0.25 µg/mL (≈ 0.487 µM); in [2], 2 µg/mL (≈ 3.9 µM). The MIC with E. fecalis MRO 04045 is 0.25 µg/mL (≈ 0.487 µM); in the assay on S. aureus MRO 00059, 0.25 µg/mL (≈ 0.487 µM); in [3] it was 2 µg/mL (≈ 3.9 µM); with S. aureus MRO 00001 it was 0.25 µg/mL (≈ 0.487 µM).
Consider `CC(=S)NC[C@H]1CN(c2ccc(N3CCN(C(=S)Nc4ccc([N+](=O)[O-])cc4)CC3)c(F)c2)C(=O)O1` [Example 45, (S)-N-[3-[3-Fluoro-4-(4-(4-nitrophenyl)thiocarbamidopiperazin-1-yl)phenyl]-2-oxooxazolidin-5-methyl]thioacetamide], for which the MIC in the assay on S. aureus MRO 00003 is 0.5 µg/mL (≈ 0.939 µM); in the assay with S. epidermidis MRO 02046, 0.25 µg/mL (≈ 0.469 µM); in the assay with S. aureus MRO 00013 it was 0.5 µg/mL (≈ 0.939 µM); in the assay with E. faecalis ATCC 29212, 0.25 µg/mL (≈ 0.469 µM); with S. aureus MRO 00030, 0.5 µg/mL (≈ 0.939 µM); in the assay with E. faecalis ATCC 51299, 0.25 µg/mL (≈ 0.469 µM). Besides, the MIC in the assay with S. aureus MRO 00048 is 0.25 µg/mL (≈ 0.469 µM); with S. aureus ATCC 29213, 0.5 µg/mL (≈ 0.939 µM); with S. aureus MRO 00055, 0.5 µg/mL (≈ 0.939 µM); in the assay with S. aureus ATCC 43300, 0.25 µg/mL (≈ 0.469 µM); in the assay with E. fecalis MRO 04045 it was 0.25 µg/mL (≈ 0.469 µM); in the assay on S. aureus MRO 00059, 0.5 µg/mL (≈ 0.939 µM). In addition, the MIC in the assay with S. aureus MRO 00001 was 0.25 µg/mL (≈ 0.469 µM).
Consider `CC(=S)NC[C@H]1CN(c2ccc(N3CCN(C(=S)NC(=O)c4ccccc4)CC3)c(F)c2)C(=O)O1` [Example 47], for which the MIC worked out at 0.5 µg/mL (≈ 0.97 µM) in the assay with S. aureus MRO 00003; 0.25 µg/mL (≈ 0.485 µM) with S. epidermidis MRO 02046; 0.5 µg/mL (≈ 0.97 µM) with S. aureus MRO 00013; 0.25 µg/mL (≈ 0.485 µM) in the assay on E. faecalis ATCC 29212; 0.5 µg/mL (≈ 0.97 µM) with S. aureus MRO 00030; 0.25 µg/mL (≈ 0.485 µM) with E. faecalis ATCC 51299. Besides, the MIC in the assay with S. aureus MRO 00048 worked out at 0.25 µg/mL (≈ 0.485 µM); with S. aureus ATCC 29213 it was 0.5 µg/mL (≈ 0.97 µM); in the assay with S. aureus MRO 00055, 0.5 µg/mL (≈ 0.97 µM); in the assay on S. aureus ATCC 43300 it was 0.25 µg/mL (≈ 0.485 µM); with E. fecalis MRO 04045, 0.25 µg/mL (≈ 0.485 µM); in the assay on S. aureus MRO 00059 it was 0.25 µg/mL (≈ 0.485 µM). For the same compound, the MIC with S. aureus MRO 00001 stood at 0.25 µg/mL (≈ 0.485 µM).
